The values that follow come from patent US12378250B2, “Tricyclic compound as IRAK4 inhibitor” (KOREA RESEARCH INSTITUTE OF CHEMICAL TECHNOLOGY, priority 2018, dated 2025).

The experiment addresses T1, IRAK4 enzyme (Homo sapiens, UniProt Q9NWZ3).
T1 sequence (Q9NWZ3 1-460): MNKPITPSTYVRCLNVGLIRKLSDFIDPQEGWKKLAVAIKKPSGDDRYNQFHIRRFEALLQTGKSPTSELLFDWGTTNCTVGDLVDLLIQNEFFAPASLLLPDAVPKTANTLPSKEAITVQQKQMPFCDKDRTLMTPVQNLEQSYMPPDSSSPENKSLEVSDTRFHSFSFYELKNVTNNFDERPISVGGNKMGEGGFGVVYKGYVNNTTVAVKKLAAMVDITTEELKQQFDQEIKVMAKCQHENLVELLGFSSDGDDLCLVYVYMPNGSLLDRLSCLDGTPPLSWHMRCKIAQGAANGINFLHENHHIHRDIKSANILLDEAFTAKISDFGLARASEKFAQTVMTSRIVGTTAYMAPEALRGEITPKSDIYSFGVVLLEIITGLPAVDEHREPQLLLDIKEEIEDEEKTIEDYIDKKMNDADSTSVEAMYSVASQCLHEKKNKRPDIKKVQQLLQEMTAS
Briefly: IRAK4 enzyme inhibition degree (bead-based kinase assay, peptide substrate BMKC-2, 100 μM ATP). It counts as biochemical. The note with it: compound 1 μM. Summed up: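 IRAK4 (0.4 ng/μl stock) preincubated 10 min with compound, then 6 μM BMKC-2 peptide with 100 μM ATP (mix concentrations) for 60 min at room temperature; EDTA stop. Phospho-Thr antibody with AlphaScreen donor/acceptor beads detected product; % inhibition versus controls, IC50 by non-linear regression.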

Molecules are shown by their SMILES.

A word on the inhibition: it is the relative decrease from the control value, in per cent. High values mean a strong effect, low ones a weak effect. `Fc1cncc(-c2ccc3[nH]c4ncnc(N[C@H]5CC[C@H](N6CCOCC6)CC5)c4c3c2)c1` [Compound 6aaf, 6-(5-fluoropyridin-3-yl)-N-(trans-4-morpholinocyclohexyl)-9H-pyrimido[4,5-b]indole-4-amine] yielded an inhibition at 1 µM of 100%.
